Measurements published in US10647713B2 (Nimbus Lakshmi, Inc., priority 2016, dated 2020).

Each molecule was assayed against human TYK2 (JH2domain-pseudokinase) (Homo sapiens (Human), UniProt P29597) (assay: TYK2 JH2 Domain Binding Assay (KINOMEscan, DiscoveRx)). Conditions: 11-point dilution, duplicate.
Method in brief: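 Kd from duplicate 11-point 3-fold dilutions starting at 30,000 nM, fitted by Hill equation with slope fixed at −1. Compounds (final 0.9% DMSO) displace DNA-tagged HEK293-expressed TYK2 JH2 fusion (<0.1 nM) from ligand-coated beads over 1 h at room temperature; eluted kinase read by qPCR.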

human TYK2 (JH2domain-pseudokinase), sequence (P29597 556-888): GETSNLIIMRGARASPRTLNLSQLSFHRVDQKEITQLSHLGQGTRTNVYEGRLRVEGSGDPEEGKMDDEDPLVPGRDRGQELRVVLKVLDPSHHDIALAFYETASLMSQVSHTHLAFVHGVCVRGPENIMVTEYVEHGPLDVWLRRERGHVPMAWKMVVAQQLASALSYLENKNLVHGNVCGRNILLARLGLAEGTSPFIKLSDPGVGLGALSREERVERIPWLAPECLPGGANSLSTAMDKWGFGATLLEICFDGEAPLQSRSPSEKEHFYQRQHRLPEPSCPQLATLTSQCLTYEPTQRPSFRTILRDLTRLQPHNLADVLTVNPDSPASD

Row | Structure (SMILES) | Kd [nM]
1 | CS(=O)(=O)c1cc([C@H]2CCCOC2)ccc1Nc1cc(NC(=O)C2CC2)nc2[nH]c(C(F)F)nc12 [I-252, (R)—N-(2-(difluoromethyl)-7-((2-(methylsulfonyl)-4-(tetrahydro-2H-pyran-3-yl)phenyl)amino)-3H-imidazo[4,5-b]pyridin-5-yl)cyclopropanecarboxamide] | 1 to 10
2 | CS(=O)(=O)c1cc([C@@H]2CCCOC2)ccc1Nc1cc(NC(=O)C2CC2)nc2[nH]c(C(F)F)nc12 [I-253, (S)—N-(2-(difluoromethyl)-7-((2-(methylsulfonyl)-4-(tetrahydro-2H-pyran-3-yl)phenyl)amino)-3H-imidazo[4,5-b]pyridin-5-yl)cyclopropanecarboxamide] | 0.1 to 0.5
3 | Cc1nc2c(Nc3ccc([C@@H]4CCCOC4)cc3S(C)(=O)=O)cc(NC(=O)C3CC3)nc2[nH]1 [I-255, (S)—N-(2-methyl-7-((2-(methylsulfonyl)-4-(tetrahydro-2H-pyran-3-yl)phenyl)amino)-3H-imidazo[4,5-b]pyridin-5-yl)cyclopropanecarboxamide] | 0.1 to 0.5
4 | Cc1nc2c(Nc3ccc([C@H]4CCCCO4)cc3S(C)(=O)=O)cc(NC(=O)[C@H]3CC3(F)F)nc2[nH]1 [I-256, (R)-2,2-difluoro-N-(2-methyl-7-((2-(methylsulfonyl)-4-((R)-tetrahydro-2H-pyran-2-yl)phenyl)amino)-3H-imidazo[4,5-b]pyridin-5-yl)cyclopropane-1-carboxamide] | 0.5 to 1
5 | Cc1nc2c(Nc3ccc([C@H]4CCCCO4)cc3S(C)(=O)=O)cc(NC(=O)[C@@H]3CC3(F)F)nc2[nH]1 [I-257, (S)-2,2-difluoro-N-(2-methyl-7-((2-(methylsulfonyl)-4-((R)-tetrahydro-2H-pyran-2-yl)phenyl)amino)-3H-imidazo[4,5-b]pyridin-5-yl)cyclopropane-1-carboxamide] | 1 to 10
6 | CS(=O)(=O)c1cc(C(F)(F)F)ccc1Nc1cc(NC(=O)C2CC2)nc2[nH]c(C(F)F)nc12 [I-258, N-(2-(difluoromethyl)-7-((2-(methylsulfonyl)-4-(trifluoromethyl)phenyl)amino)-3H-imidazo[4,5-b]pyridin-5-yl)cyclopropanecarboxamide] | 1 to 10
7 | Cc1nc2c(Nc3ccc(C(F)(F)F)cc3S(C)(=O)=O)cc(NC(=O)C3CC3)nc2[nH]1 [I-259, N-(2-methyl-7-((2-(methylsulfonyl)-4-(trifluoromethyl)phenyl)amino)-3H-imidazo[4,5-b]pyridin-5-yl)cyclopropanecarboxamide] | 1 to 10
8 | Cc1nc2c(Nc3ccc(-c4cncn4C)cc3S(C)(=O)=O)cc(NC(=O)[C@@H]3C[C@@H]3F)nc2[nH]1 [I-260, (1S,2S)-2-fluoro-N-(2-methyl-7-((4-(1-methyl-1H-imidazol-5-yl)-2-(methylsulfonyl)phenyl)amino)-3H-imidazo[4,5-b]pyridin-5-yl)cyclopropane-1-carboxamide] | < 0.1
9 | Cc1nc2c(Nc3ccc(-c4cncn4C)cc3S(C)(=O)=O)cc(NC(=O)[C@H]3C[C@H]3F)nc2[nH]1 [I-261, (1R,2R)-2-fluoro-N-(2-methyl-7-((4-(1-methyl-1H-imidazol-5-yl)-2-(methylsulfonyl)phenyl)amino)-3H-imidazo[4,5-b]pyridin-5-yl)cyclopropane-1-carboxamide] | 0.1 to 0.5
10 | Cc1nc2c(Nc3ccc(-c4nn(C)cc4C)cc3S(C)(=O)=O)cc(NC(=O)[C@@H]3C[C@@H]3F)nc2[nH]1 [I-262, (1S,2S)—N-(7-((4-(1,4-dimethyl-1H-pyrazol-3-yl)-2-(methylsulfonyl)phenyl)amino)-2-methyl-3H-imidazo[4,5-b]pyridin-5-yl)-2-fluorocyclopropane-1-carboxamide] | 0.1 to 0.5
11 | Cc1nc2c(Nc3ccc(-c4nn(C)cc4C)cc3S(C)(=O)=O)cc(NC(=O)[C@H]3C[C@H]3F)nc2[nH]1 [I-263, (1R,2R)—N-(7-((4-(1,4-dimethyl-1H-pyrazol-3-yl)-2-(methylsulfonyl)phenyl)amino)-2-methyl-3H-imidazo[4,5-b]pyridin-5-yl)-2-fluorocyclopropane-1-carboxamide] | < 0.1
12 | Cc1nc2c(Nc3ccc(-c4cnn(C)c4C)cc3S(C)(=O)=O)cc(NC(=O)C3CC3)nc2[nH]1 [I-265, N-(7-((4-(1,5-dimethyl-1H-pyrazol-4-yl)-2-(methylsulfonyl)phenyl)amino)-2-methyl-3H-imidazo[4,5-b]pyridin-5-yl)cyclopropanecarboxamide] | < 0.1
13 | COc1c(Nc2cc(NC(=O)[C@@H]3C[C@@H]3F)nc3[nH]c(C)nc23)cccc1-c1ncn(C)n1 [I-266, (1S,2S)-2-fluoro-N-(7-((2-methoxy-3-(1-methyl-1H-1,2,4-triazol-3-yl)phenyl)amino)-2-methyl-3H-imidazo[4,5-b]pyridin-5-yl)cyclopropane-1-carboxamide] | 0.5 to 1
14 | COc1c(Nc2cc(NC(=O)[C@H]3C[C@H]3F)nc3[nH]c(C)nc23)cccc1-c1ncn(C)n1 [I-267, (1R,2R)-2-fluoro-N-(7-((2-methoxy-3-(1-methyl-1H-1,2,4-triazol-3-yl)phenyl)amino)-2-methyl-3H-imidazo[4,5-b]pyridin-5-yl)cyclopropane-1-carboxamide] | 1 to 10
15 | Cc1nc2c(Nc3ccc(-c4cnn(C)c4)cc3N(C)S(C)(=O)=O)cc(NC(=O)[C@@H]3C[C@@H]3F)nc2[nH]1 [I-268, (1S,2S)-2-fluoro-N-(2-methyl-7-((4-(1-methyl-1H-pyrazol-4-yl)-2-(N-methylmethylsulfonamido)phenyl)amino)-3H-imidazo[4,5-b]pyridin-5-yl)cyclopropane-1-carboxamide] | 0.1 to 0.5
16 | Cc1nc2c(Nc3ccc(-c4cnn(C)c4)cc3N(C)S(C)(=O)=O)cc(NC(=O)[C@H]3C[C@H]3F)nc2[nH]1 [I-269, (1R,2R)-2-fluoro-N-(2-methyl-7-((4-(1-methyl-1H-pyrazol-4-yl)-2-(N-methylmethylsulfonamido)phenyl)amino)-3H-imidazo[4,5-b]pyridin-5-yl)cyclopropane-1-carboxamide] | 0.1 to 0.5
17 | CN(c1cc(-c2cncn2C)ccc1Nc1cc(NC(=O)[C@@H]2CC2(F)F)nc2[nH]c(C(F)F)nc12)S(C)(=O)=O [I-270, (S)—N-(2-(difluoromethyl)-7-((4-(1-methyl-1H-imidazol-5-yl)-2-(N-methylmethylsulfonamido)phenyl)amino)-3H-imidazo[4,5-b]pyridin-5-yl)-2,2-difluorocyclopropane-1-carboxamide] | 0.1 to 0.5
18 | CN(c1cc(-c2cncn2C)ccc1Nc1cc(NC(=O)[C@H]2CC2(F)F)nc2[nH]c(C(F)F)nc12)S(C)(=O)=O [I-271, (R)—N-(2-(difluoromethyl)-7-((4-(1-methyl-1H-imidazol-5-yl)-2-(N-methylmethylsulfonamido)phenyl)amino)-3H-imidazo[4,5-b]pyridin-5-yl)-2,2-difluorocyclopropane-1-carboxamide] | 1 to 10
19 | CS(=O)(=O)c1cc(C2CC2)ccc1Nc1cc(Nc2cccc(C(F)(F)F)n2)nc2[nH]c(C(F)F)nc12 [I-272] | 1 to 10
20 | Cc1nc2c(Nc3ccc(C4CC4)cc3S(C)(=O)=O)cc(Nc3cccc(C(F)(F)F)n3)nc2[nH]1 [I-273] | 0.5 to 1
21 | Cc1nc2c(Nc3ccc(-c4cncn4C)cc3N(C)S(C)(=O)=O)cc(NC(=O)[C@@H]3CC3(F)F)nc2[nH]1 [I-274, (S)-2,2-difluoro-N-(2-methyl-7-((4-(1-methyl-1H-imidazol-5-yl)-2-(N-methylmethylsulfonamido)phenyl)amino)-3H-imidazo[4,5-b]pyridin-5-yl)cyclopropane-1-carboxamide] | 0.1 to 0.5
22 | Cc1nc2c(Nc3ccc(-c4cncn4C)cc3N(C)S(C)(=O)=O)cc(NC(=O)[C@H]3CC3(F)F)nc2[nH]1 [I-275, (R)-2,2-difluoro-N-(2-methyl-7-((4-(1-methyl-1H-imidazol-5-yl)-2-(N-methylmethylsulfonamido)phenyl)amino)-3H-imidazo[4,5-b]pyridin-5-yl)cyclopropane-1-carboxamide] | 1 to 10
23 | Cc1cc(-c2ccc(Nc3cc(Nc4cccc(C#N)n4)nc4[nH]c(C(F)F)nc34)c(S(C)(=O)=O)c2)nn1C [I-277] | 0.1 to 0.5
24 | Cc1nc2c(Nc3ccc([C@@H]4CCCCO4)cc3S(C)(=O)=O)cc(NC(=O)[C@H]3CC3(F)F)nc2[nH]1 [I-278, (R)-2,2-difluoro-N-(2-methyl-7-((2-(methylsulfonyl)-4-((S)-tetrahydro-2H-pyran-2-yl)phenyl)amino)-3H-imidazo[4,5-b]pyridin-5-yl)cyclopropane-1-carboxamide] | 0.1 to 0.5
25 | Cc1nc2c(Nc3ccc([C@@H]4CCCCO4)cc3S(C)(=O)=O)cc(NC(=O)[C@@H]3CC3(F)F)nc2[nH]1 [I-279, (S)-2,2-difluoro-N-(2-methyl-7-((2-(methylsulfonyl)-4-((S)-tetrahydro-2H-pyran-2-yl)phenyl)amino)-3H-imidazo[4,5-b]pyridin-5-yl)cyclopropane-1-carboxamide] | 1 to 10
26 | CS(=O)(=O)c1cc([C@H]2CCCCO2)ccc1Nc1cc(NC(=O)[C@H]2CC2(F)F)nc2[nH]c(C(F)F)nc12 [I-280, (R)—N-(2-(difluoromethyl)-7-((2-(methylsulfonyl)-4-((R)-tetrahydro-2H-pyran-2-yl)phenyl)amino)-3H-imidazo[4,5-b]pyridin-5-yl)-2,2-difluorocyclopropane-1-carboxamide] | 0.5 to 1
27 | CS(=O)(=O)c1cc([C@H]2CCCCO2)ccc1Nc1cc(NC(=O)[C@@H]2CC2(F)F)nc2[nH]c(C(F)F)nc12 [I-281, (S)—N-(2-(difluoromethyl)-7-((2-(methylsulfonyl)-4-((R)-tetrahydro-2H-pyran-2-yl)phenyl)amino)-3H-imidazo[4,5-b]pyridin-5-yl)-2,2-difluorocyclopropane-1-carboxamide] | 1 to 10
28 | Cc1nc2c(Nc3ccc(C4=NC(C)(C)CO4)cc3S(C)(=O)=O)cc(NC(=O)[C@@H]3C[C@@H]3F)nc2[nH]1 [I-282, (1S,2S)—N-(7-((4-(4,4-dimethyl-4,5-dihydrooxazol-2-yl)-2-(methylsulfonyl)phenyl)amino)-2-methyl-3H-imidazo[4,5-b]pyridin-5-yl)-2-fluorocyclopropane-1-carboxamide] | 1 to 10
